# According to US20060014949A1 (SuperGen Inc., priority 2004, published 2006):
# Legend:
# Assay type in all cases: physicochemical
# [1] = Moisture sorption/desorption analysis (VTI SGA-100); details: for solid form after moisture sorption/desorption analysis: after sorption/desorption cycle
# Description: Moisture sorption/desorption data were collected on a VTI SGA-100 Vapor Sorption Analyzer. Sorption and desorption data were collected over a range of 5 to 95% relative humidity (RH) at 10% RH increments under a nitrogen purge. Sodium chloride (NaCl) and polyvinylpyrrolidone (PVP) were used as the calibration standards. Equilibrium criteria used for analysis were less than 0.0100% weight change in 5 minutes, with a maximum equilibration time of 180 minutes if the weight criterion was not met. Data collected were not corrected for the initial moisture content of the samples.
# [2] = Relative humidity stress experiments, XRPD after storage over saturated salt solutions
# Description: In relative humidity (RH) stress analysis, open vials containing solid samples were placed inside chambers containing saturated salt solutions along with a small amount of the undissolved salt. The chambers were sealed and allowed to stand at ambient temperature for several days. Samples were analyzed by X-ray powder diffraction (XRPD) immediately after removing the sample from the RH chamber. The RH values these salt solutions were obtained from an ASTM standard.
# [3] = Thermogravimetric analysis (TGA)
# Description: Thermogravimetric analysis (TGA) was carried out on TA Instruments TGA 2050 or 2950. The calibration standards were nickel and Alumel™. Samples were placed on a clean, aluminum sample pan, accurately weighed, and inserted into the TGA furnace. The samples were heated in nitrogen at a rate of 10° C./min, from 35° C. to a final temperature of 250° C.
# [4] = Solid-state stress (compression, heating, grinding, storage) with XRPD form check
# Description: X-ray powder diffraction analyses were carried out on a Shimadzu XRD-6000 X-ray powder diffractometer using Cu Kα radiation having a wavelength of 1.5406 Å. The instrument is equipped with a fine-focus X-ray tube. The tube power was set by setting potential difference at 40 kV, and current 40 mA. The divergence and scattering slits were set at 1° and the receiving slit was set at 0.15 mm. Diffracted radiation was detected by a NaI scintillation detector. A theta-two theta continuous scan at 3°/min (0.4 sec/0.02° step) from 2.5 to 40 °2θ was performed. A silicon standard was analyzed each day to check the instrument alignment. Each sample was analyzed in a quartz sample holder. A variable temperature (VT-XRPD) experiment was performed on one form. The sample was prepared for analysis by pressing it into a variable temperature holder.
# [5] = Approximate solubility by solvent aliquot addition, visual inspection; details: thermodynamic from solid
# Description: Solvents were either reagent or HPLC grade. The aliquots were typically either 100 μL or 1 mL. Between additions, the mixture was typically shaken or sonicated. Whether the solids dissolved was judged by visual inspection. Solubilities were estimated from these experiments based on the total solvent used to provide complete dissolution.
# Solubilities were estimated from these experiments based on the total solvent used to give a solution. Duplicate runs were averaged.
smiles,measurement,setting,value
Nc1ncn([C@H]2C[C@H](O)[C@@H](CO)O2)c(=O)n1 [Form C],total weight gain from 5 to 95% RH,[1]; 5 to 95% RH,~13%
same,solid form after moisture sorption/desorption analysis,[1]; listed as form C,converts to form B
same,weight (water) lost upon equilibration to 5% RH,[1],1.4%
same,weight (water) lost upon equilibration to 5% RH,[1]; listed as form C,approximately 1.4%
same,XRPD result,"[2]; Magnesium Chloride, 33.1 % RH @ 20° C., 28 days",remained unchanged
same,XRPD result,"[2]; Potassium Acetate, 23.1 % RH @ 20° C., 25 days",converted from form C to form B
same,XRPD result,"[2]; Potassium Chloride, 85.1 % RH @ 20° C., 28 days",converted from form C to form B
same,TGA Results: percent weight change from 25 to 150° C.,[3]; listed as C,1.2%
same,TGA Results: percent weight change from 25 to 150° C.,[3]; listed as form C,approximately 1.2%
same,TGA weight loss at about 150° C.,[3]; sample prepared by vacuum evaporation of a solution in water (sample no. 1029-65-05),~7.2%
same,TGA weight loss at about 150° C.,[3]; weight equilibrium event at 25° C. omitted from the TGA method,approximately 3.2%
"Nc1ncn([C@H]2C[C@H](O)[C@@H](CO)O2)c(=O)n1 [Decitabine, 5-aza-2′-deoxycytidine]",XRPD Pattern,"[4]; no solvent, Hydraulic Press 10,000 lbs ~3 min",A + 1 peak
same,solubility,"[5]; 1,1,1,3,3,3-hexafluoro-2-propanol, organic solvent or mixture, solvent 1,1,1,3,3,3-Hexafluoro-2-propanol",~18000 µg/mL
same,solubility,"[5]; 1,1,1-trichloroethane, organic solvent or mixture, solvent 1,1,1-Trichloroethane",< 1000 µg/mL
same,solubility,"[5]; 1,4-dioxane, organic solvent or mixture, solvent 1,4-Dioxane",< 2000 µg/mL
same,solubility,"[5]; 2-butanone, organic solvent or mixture, solvent 2-Butanone",< 1000 µg/mL
same,solubility,"[5]; 2-propanol, organic solvent or mixture, solvent 2-Propanol",< 1000 µg/mL
same,solubility,"[5]; acetone, organic solvent or mixture, solvent Acetone",< 1000 µg/mL
same,solubility,"[5]; acetonitrile, organic solvent or mixture, solvent Acetonitrile",< 1000 µg/mL
same,solubility,"[5]; chloroform, organic solvent or mixture, solvent Chloroform",< 1000 µg/mL
same,solubility,"[5]; dichloromethane, organic solvent or mixture, solvent Dichloromethane",< 1000 µg/mL
same,solubility,"[5]; dichloromethane:ethanol (1:1), organic solvent or mixture, solvent Dichloromethane:Ethanol (1:1)",< 1000 µg/mL
same,solubility,"[5]; dichloromethane:methanol (1:1), organic solvent or mixture, solvent Dichloromethane:Methanol (1:1)",> 1000 µg/mL
same,solubility,"[5]; diethylamine, organic solvent or mixture, solvent Diethylamine",< 1000 µg/mL
same,solubility,"[5]; ethyl acetate, organic solvent or mixture, solvent Ethyl Acetate",< 1000 µg/mL
same,solubility,"[5]; ethyl ether, organic solvent or mixture, solvent Ethyl Ether",< 1000 µg/mL
same,solubility,"[5]; hexanes, organic solvent or mixture, solvent Hexanes",< 1000 µg/mL
same,solubility,"[5]; methanol:2,2,2-trifluoroethanol (1:1), organic solvent or mixture, solvent Methanol:2,2,2-Trifluoroethanol (1:1)",> 1000 µg/mL
same,solubility,"[5]; methanol:water (1:1), aqueous with cosolvent or surfactant or cyclodextrin, solvent Methanol:Water (1:1)",4000 µg/mL
same,solubility,"[5]; methyl sulfide, organic solvent or mixture, solvent Methyl Sulfide",< 1000 µg/mL
same,solubility,"[5]; methyl sulfoxide, organic solvent or mixture, solvent Methyl Sulfoxide",~37000 µg/mL
same,solubility,"[5]; nitromethane, organic solvent or mixture, solvent Nitromethane",< 1000 µg/mL
same,solubility,"[5]; tetrahydrofuran, organic solvent or mixture, solvent Tetrahydrofuran",< 1000 µg/mL
same,solubility,"[5]; toluene, organic solvent or mixture, solvent Toluene",< 1000 µg/mL
same,solubility,"[5]; water, solvent Water",~8000 µg/mL
Nc1ncn([C@H]2C[C@H](O)[C@@H](CO)O2)c(=O)n1.O [Form B],water regained at 95% RH,[1]; 95% RH,0.09%
same,Weight % chg,"[1]; Table 5, desorption, RH 4.98 %, 25.07 deg C, 854.2 min",−2.2984%
same,Weight % chg,"[1]; Table 5, desorption, RH 15.05 %, 25.07 deg C, 672.3 min",0.0005%
same,Weight % chg,"[1]; Table 5, desorption, RH 25.12 %, 25.06 deg C, 665.2 min",0.0098%
same,Weight % chg,"[1]; Table 5, desorption, RH 35.00 %, 25.07 deg C, 658.2 min",0.0184%
same,Weight % chg,"[1]; Table 5, desorption, RH 45.01 %, 25.06 deg C, 650.7 min",0.0274%
same,Weight % chg,"[1]; Table 5, desorption, RH 55.06 %, 25.06 deg C, 643.2 min",0.0357%
same,Weight % chg,"[1]; Table 5, desorption, RH 65.04 %, 25.07 deg C, 635.7 min",0.0439%
same,Weight % chg,"[1]; Table 5, desorption, RH 75.10 %, 25.06 deg C, 627.7 min",0.0553%
same,Weight % chg,"[1]; Table 5, desorption, RH 85.33 %, 25.07 deg C, 619.7 min",0.0688%
same,Weight % chg,"[1]; Table 5, sorption, RH 4.98 %, 25.06 deg C, 185.1 min",−2.3894%
same,Weight % chg,"[1]; Table 5, sorption, RH 15.24 %, 25.07 deg C, 193.2 min",−2.4118%
same,Weight % chg,"[1]; Table 5, sorption, RH 24.84 %, 25.07 deg C, 242.2 min",−2.2223%
same,Weight % chg,"[1]; Table 5, sorption, RH 35.00 %, 25.06 deg C, 384.9 min",−1.2517%
same,Weight % chg,"[1]; Table 5, sorption, RH 44.84 %, 25.06 deg C, 499.6 min",−0.5520%
same,Weight % chg,"[1]; Table 5, sorption, RH 54.81 %, 25.07 deg C, 556.5 min",−0.1535%
same,Weight % chg,"[1]; Table 5, sorption, RH 65.01 %, 25.07 deg C, 579.8 min",−0.0371%
same,Weight % chg,"[1]; Table 5, sorption, RH 74.89 %, 25.08 deg C, 592.3 min",0.0119%
same,Weight % chg,"[1]; Table 5, sorption, RH 84.81 %, 25.08 deg C, 601.5 min",0.0426%
same,Weight % chg,"[1]; Table 5, sorption, RH 94.59 %, 25.09 deg C, 613.0 min",0.0851%
same,Weight % chg,"[1]; Table 5, start, RH 2.15 %, 25.08 deg C, 0.0 min",0.0000%
same,Weight % chg,"[1]; Table 7, desorption, RH 4.96 %, 25.03 deg C, 887.7 min",−1.6786%
same,Weight % chg,"[1]; Table 7, desorption, RH 14.79 %, 25.03 deg C, 771.0 min",6.1361%
same,Weight % chg,"[1]; Table 7, desorption, RH 24.87 %, 25.03 deg C, 758.6 min",6.2283%
same,Weight % chg,"[1]; Table 7, desorption, RH 35.04 %, 25.03 deg C, 749.3 min",6.3408%
same,Weight % chg,"[1]; Table 7, desorption, RH 45.13 %, 25.02 deg C, 739.6 min",6.4585%
same,Weight % chg,"[1]; Table 7, desorption, RH 54.99 %, 25.02 deg C, 725.7 min",6.6172%
same,Weight % chg,"[1]; Table 7, desorption, RH 65.12 %, 25.03 deg C, 711.7 min",6.8321%
same,Weight % chg,"[1]; Table 7, desorption, RH 75.27 %, 25.03 deg C, 697.2 min",7.1750%
same,Weight % chg,"[1]; Table 7, desorption, RH 85.18 %, 25.03 deg C, 673.5 min",7.9222%
same,Weight % chg,"[1]; Table 7, sorption, RH 4.95 %, 25.07 deg C, 47.5 min",−1.4176%
same,Weight % chg,"[1]; Table 7, sorption, RH 14.98 %, 25.08 deg C, 60.6 min",−1.3613%
same,Weight % chg,"[1]; Table 7, sorption, RH 24.93 %, 25.08 deg C, 73.7 min",−1.2692%
same,Weight % chg,"[1]; Table 7, sorption, RH 35.04 %, 25.08 deg C, 94.3 min",−0.8649%
same,Weight % chg,"[1]; Table 7, sorption, RH 44.87 %, 25.08 deg C, 116.7 min",−0.4555%
same,Weight % chg,"[1]; Table 7, sorption, RH 55.02 %, 25.05 deg C, 298.7 min",3.5457%
same,Weight % chg,"[1]; Table 7, sorption, RH 65.01 %, 25.05 deg C, 385.9 min",6.2129%
same,Weight % chg,"[1]; Table 7, sorption, RH 74.94 %, 25.05 deg C, 413.2 min",6.6223%
same,Weight % chg,"[1]; Table 7, sorption, RH 85.01 %, 25.05 deg C, 456.7 min",7.2160%
same,Weight % chg,"[1]; Table 7, sorption, RH 95.15 %, 25.03 deg C, 640.2 min",11.2538%
same,Weight % chg,"[1]; Table 7, start, RH 2.94 %, 25.07 deg C, 0.0 min",0.0000%
same,solid form after moisture sorption/desorption analysis,[1],a mixture of forms B and form C
same,weight (water) lost upon equilibration to 5% RH,[1],~2.4%
same,RH at which the moisture lost at 5% RH is regained,[1]; sorption cycle,about 44 % RH
same,XRPD Pattern,[4]; Post TGA @ 150° C. 10 min (dry nitrogen),converts to form A
same,form change in VT-XRPD experiment,[4]; heated in the presence of air,converted to a mixture of forms B and C
same,form change on storage,[4]; vacuum oven at room temperature for 6 days,converts to form C
same,TGA Results: percent weight change from 25 to 150° C.,[3]; listed as B,7.212%
same,TGA Results: percent weight change from 25 to 150° C.,[3]; listed as form B,7.2%
